Series [1] concerns the target DNA-PK (Homo sapiens (Human), UniProt P78527). Put plainly: DNA-PK assay (biochemical), flashplate 33P-ATP kinase assay. The note with it: enzymatic; 5 μM ATP. The method, boiled down: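 Reactions ran in streptavidin-coated flashplates and were halted by 200 mM EDTA, with a further 30 min at room temperature before saline washing.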
Series [2] concerns the target DNA-PK phosphorylation at serine 2056 (Homo sapiens (Human), UniProt P78527). Put plainly: DNA-PK phosphorylation at serine 2056 (cellular), bleomycin-treated HCT116 cells, ELISA. In kind it is cell-based. The following applies: cellular; HCT116 cells, 10 μM bleomycin, six hours; read-out: IC50 pDNA-PK. The method in brief:
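Test compounds and bleomycin (10 μM) are added to adherent HCT116 cells for 6 h. Detection uses an HRP-based chemiluminescent ELISA, with phospho-DNA-PK signals standardised to total protein.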
(In general: An ELISA detects its analyte on a solid surface through an enzyme-linked reagent.)

Series [3] has as its target Kv11.1 (hERG) (Homo sapiens (Human), UniProt Q12809). Briefly: Kv11.1 (hERG) ion channel activity (patch clamp assay), HEK293 cells transfected with hERG gene. The following applies: patch clamp, HEK293 transfected with hERG gene. Background: Block of hERG is tested as a sign of cardiac risk.

Where two headings read alike, the source gives them in different places.

Kv11.1 (hERG), sequence (Q12809 whole entry): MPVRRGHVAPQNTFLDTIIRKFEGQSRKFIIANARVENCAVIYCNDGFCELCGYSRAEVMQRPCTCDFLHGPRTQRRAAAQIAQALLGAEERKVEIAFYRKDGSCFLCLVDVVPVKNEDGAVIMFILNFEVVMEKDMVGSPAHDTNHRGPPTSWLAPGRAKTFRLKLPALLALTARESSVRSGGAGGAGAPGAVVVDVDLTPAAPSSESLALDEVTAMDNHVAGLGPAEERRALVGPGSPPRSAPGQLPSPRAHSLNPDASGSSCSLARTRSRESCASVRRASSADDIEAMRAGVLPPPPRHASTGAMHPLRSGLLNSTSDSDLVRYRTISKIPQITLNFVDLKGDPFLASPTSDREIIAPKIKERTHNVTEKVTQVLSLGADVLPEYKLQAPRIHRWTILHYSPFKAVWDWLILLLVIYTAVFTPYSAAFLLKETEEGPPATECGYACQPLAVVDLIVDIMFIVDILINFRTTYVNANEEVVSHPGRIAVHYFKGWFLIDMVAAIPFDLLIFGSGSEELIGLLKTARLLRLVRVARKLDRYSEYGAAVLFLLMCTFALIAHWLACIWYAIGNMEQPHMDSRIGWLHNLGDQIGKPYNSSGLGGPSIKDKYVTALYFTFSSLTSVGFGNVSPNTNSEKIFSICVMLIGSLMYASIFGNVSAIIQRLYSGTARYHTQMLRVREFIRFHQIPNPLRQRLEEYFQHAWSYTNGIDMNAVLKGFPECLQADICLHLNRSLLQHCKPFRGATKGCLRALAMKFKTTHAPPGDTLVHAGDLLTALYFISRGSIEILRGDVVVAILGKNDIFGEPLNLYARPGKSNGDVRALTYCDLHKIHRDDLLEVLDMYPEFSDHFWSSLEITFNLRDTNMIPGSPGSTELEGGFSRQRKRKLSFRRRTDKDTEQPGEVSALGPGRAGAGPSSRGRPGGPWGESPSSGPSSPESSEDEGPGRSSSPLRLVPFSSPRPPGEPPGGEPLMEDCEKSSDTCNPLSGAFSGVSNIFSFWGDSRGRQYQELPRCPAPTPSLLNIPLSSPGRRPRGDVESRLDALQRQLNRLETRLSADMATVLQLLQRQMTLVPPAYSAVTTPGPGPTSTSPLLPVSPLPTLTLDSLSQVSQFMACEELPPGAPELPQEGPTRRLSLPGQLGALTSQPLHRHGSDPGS

A word on the IC50: it is the midpoint of a concentration-inhibition curve. A word on the Ki: it is the equilibrium dissociation constant of an inhibitor or competing ligand from its target. Consider `OC(c1ccc(F)c(-c2ncnc3cc(N4CCOCC4)ccc23)c1)c1nccnc1OC1COC1` (stereo not drawn) [Example 32, [4-fluoro-3-(7-morpholin-4-yl-quinazolin-4-yl)phenyl]-[3-(oxetan-3-yloxy)-pyrazin-2-yl]methanol], for which the 50% inhibitory concentration (IC50) lay within 0.007 to 0.03 µM in series [1] and 5 to 10 µM in series [2]. The same compound showed an inhibition constant (Ki) in series [3] (Ki [Kv1.11 hERG]) of 15 to 25 µM.
In the case of `OC(c1ccc(F)c(-c2ncnc3cc(N4CCOCC4)ccc23)c1)c1cnccn1` (stereo not drawn) [Example 33, [4-Fluoro-3-(7-morpholin-4-yl-quinazolin-4-yl)phenyl]-pyrazin-2-ylmethanol], the IC50 in series [1] is 0.007 to 0.03 µM; in series [2], 10 to 30 µM. Moreover, the Ki in series [3] (read-out: Ki [Kv1.11 hERG]) was less than 10 µM.
As for `OC(c1cnccn1)c1cc(-c2ncnc3cc(N4CCOCC4)ccc23)c(F)cc1Cl` (stereo not drawn) [Example 34, [2-Chloro-4-fluoro-5-(7-morpholin-4-yl-quinazolin-4-yl)phenyl]-pyrazin-2-ylmethanol], the IC50 in series [1] lay in the range of 0.007 to 0.03 µM; in series [2] it was 5 to 10 µM. Besides, the Ki in series [3] (Ki [Kv1.11 hERG]) lay within 15 to 25 µM.
With `OC(c1ccc(F)c(-c2ncnc3cc(N4CCOCC4)ccc23)c1)c1nc(Cl)cnc1Cl` (stereo not drawn) [Example 35, (3,6-Dichloro-pyrazin-2-yl)-[4-fluoro-3-(7-morpholin-4-yl-quinazolin-4-yl)phenyl]-methanol], the values for the IC50 in series [1] and in series [2] were less than 0.003 µM and less than 0.5 µM, respectively. In series [3] (Ki [Kv1.11 hERG]), the Ki was in the range of 10 to 15 µM.
In the case of `OC(c1ccnnc1)c1cc(-c2ncnc3cc(N4CCOCC4)ccc23)c(F)cc1Cl` (stereo not drawn) [Example 36, [2-Chloro-4-fluoro-5-(7-morpholin-4-yl-quinazolin-4-yl)phenyl]-pyridazin-4-ylmethanol], the figures for the IC50 in series [1] and in series [2] were less than 0.003 µM and less than 0.5 µM, respectively. Further, in series [3] (read-out: Ki [Kv1.11 hERG]), the inhibition constant (Ki) was more than 25 µM.
On to `OC(c1ccc(F)c(-c2ncnc3cc(N4CCOCC4)sc23)c1)c1nccnc1Cl` (stereo not drawn) [Example 37, (3-Chloropyrazin-2-yl)-[4-fluoro-3-(6-morpholin-4-ylthieno[3,2-d]pyrimidin-4-yl)phenyl]-methanol], for which the IC50 in series [1] was less than 0.003 µM; in series [2], less than 0.5 µM. The same compound registered a Ki in series [3] (Ki [Kv1.11 hERG]) of 10 to 15 µM.
Take `COc1nccnc1C(O)c1ccc(F)c(-c2ncnc3cc(N4CCOCC4)ccc23)c1` (stereo not drawn) [Example 38, [4-Fluoro-3-(7-morpholin-4-yl-quinazolin-4-yl)phenyl]-(3-methoxy-pyrazin-2-yl)methanol]: the figures for the IC50 in series [1] and in series [2] were less than 0.003 µM and less than 0.5 µM, respectively. The Ki in series [3] (read-out: Ki [Kv1.11 hERG]) is more than 25 µM.
On to `OC(c1ccn2nccc2n1)c1cc(-c2ncnc3cc(N4CCOCC4)ccc23)c(F)cc1Cl` (stereo not drawn) [Example 39, [2-Chloro-4-fluoro-5-(7-morpholin-4-yl-quinazolin-4-yl)phenyl]-pyrazolo[1,5-a]-pyrimidin-5-ylmethanol], for which the IC50 in series [1] was 0.003 to 0.007 µM; in series [2], less than 0.5 µM. The Ki in series [3] (Ki [Kv1.11 hERG]) was 15 to 25 µM.
In the case of `COc1nnc(C(O)c2cc(-c3ncnc4cc(N5CCOCC5)ccc34)c(F)cc2Cl)c2ccncc12` (stereo not drawn) [Example 40, [2-Chloro-4-fluoro-5-(7-morpholin-4-yl-quinazolin-4-yl)phenyl]-(4-methoxypyrido-[3,4-d}pyridazin-1-yl)-methanol], the IC50 in series [1] lay within 0.007 to 0.03 µM; in series [2], 0.5 to 5 µM. The same compound yielded a Ki in series [3] (Ki [Kv1.11 hERG]) of 10 to 15 µM.
For `OC(c1ccc(Cl)nn1)c1cc(-c2ncnc3cc(N4CCOCC4)ccc23)c(F)cc1Cl` (stereo not drawn) [Example 41, [2-Chloro-4-fluoro-5-(7-morpholin-4-yl-quinazolin-4-yl)phenyl]-(6-chloro-pyridazin-3-yl)methanol], the IC50 is 0.003 to 0.007 µM in series [1] and less than 0.5 µM in series [2]. This compound showed a Ki in series [3] (Ki [Kv1.11 hERG]) of 15 to 25 µM.
Turning to `OC(c1ccc(F)c(-c2ncnc3cc(N4CCOCC4)ccc23)c1)c1ncccc1Cl` (stereo not drawn) [Example 42, (3-Chloro-pyridin-2-yl)-[4-fluoro-3-(7-morpholin-4-yl-quinazolin-4-yl)phenyl]-methanol], the IC50 was less than 0.003 µM in series [1] and less than 0.5 µM in series [2]. Besides, in series [3] (Ki [Kv1.11 hERG]), the Ki was 15 to 25 µM.
Turning to `CNC(=O)c1ccc(C(O)c2cc(-c3ncnc4cc(N5CCOCC5)ccc34)c(F)cc2Cl)nn1` (stereo not drawn) [Example 43, 6-{[2-Chloro-4-fluoro-5-(7-morpholin-4-yl-quinazolin-4-yl)phenyl]-hydroxymethyl}-pyridazine-3-carboxylic acid methylamide], the values for the IC50 in series [1] and in series [2] were 0.003 to 0.007 µM and 0.5 to 5 µM, respectively. For the same compound, in series [3] (read-out: Ki [Kv1.11 hERG]), the Ki is more than 25 µM.
For `Cc1cnnc(C(O)c2cc(-c3ncnc4cc(N5CCOCC5)ccc34)c(F)cc2Cl)c1` (stereo not drawn) [Example 46, [2-Chloro-4-fluoro-5-(7-morpholin-4-yl-quinazolin-4-yl)phenyl]-(5-methylpyridazin-3-yl)methanol], the IC50 in series [1] was 0.007 to 0.03 µM; in series [2], 5 to 10 µM. This compound registered a Ki in series [3] (Ki [Kv1.11 hERG]) of 15 to 25 µM.
Turning to `OC(c1cccnn1)c1cc(-c2ncnc3cc(N4CCOCC4)ccc23)c(F)cc1Cl` (stereo not drawn) [Example 47, [2-Chloro-4-fluoro-5-(7-morpholin-4-yl-quinazolin-4-yl)phenyl]-pyridazin-3-ylmethanol], the IC50 is 0.003 to 0.007 µM in series [1] and less than 0.5 µM in series [2]. Also, in series [3] (read-out: Ki [Kv1.11 hERG]), the Ki is more than 25 µM.
In the case of `OC(c1cccnn1)c1cc(-c2ncnc3cc(N4CCOCC4)ccc23)c(F)cc1F` (stereo not drawn) [Example 48, [2,4-Difluoro-5-(7-morpholin-4-yl-quinazolin-4-yl)phenyl]-pyridazin-3-ylmethanol], the IC50 in series [1] lay in the range of 0.003 to 0.007 µM; in series [2], 0.5 to 5 µM. In series [3] (Ki [Kv1.11 hERG]), this compound had a Ki of 15 to 25 µM.
As to `OC(c1ccc(Cl)nn1)c1cc(-c2ncnc3cc(N4CCOCC4)ccc23)c(F)cc1F` (stereo not drawn) [Example 49, (6-Chloro-pyridazin-3-yl)-[2,4-difluoro-5-(7-morpholin-4-yl-quinazolin-4-yl)phenyl]-methanol], the values for the IC50 in series [1] and in series [2] were less than 0.003 µM and 0.5 to 5 µM, respectively. Further, the Ki in series [3] (read-out: Ki [Kv1.11 hERG]) was more than 25 µM.
In the case of `CN(C)C(=O)c1ccc(C(O)c2cc(-c3ncnc4cc(N5CCOCC5)ccc34)c(F)cc2Cl)nn1` (stereo not drawn) [Example 50, 6-{[2-Chloro-4-fluoro-5-(7-morpholin-4-yl-quinazolin-4-yl)phenyl]-hydroxymethyl}-pyridazine-3-carboxylic acid dimethylamide], the IC50 in series [1] lay in the range of 0.007 to 0.03 µM; in series [2], 10 to 30 µM. In addition, the Ki in series [3] (read-out: Ki [Kv1.11 hERG]) is more than 25 µM.
With `OC(c1ccc2nccn2n1)c1cc(-c2ncnc3cc(N4CCOCC4)ccc23)c(F)cc1F` (stereo not drawn) [Example 51, [2,4-Difluoro-5-(7-morpholin-4-yl-quinazolin-4-yl)phenyl]-imidazo[1,2-b]pyridazin-6-ylmethanol], the IC50 in series [1] was less than 0.003 µM; in series [2], less than 0.5 µM. The Ki in series [3] (Ki [Kv1.11 hERG]) was 15 to 25 µM.
For the compound `COc1cnc(C(O)c2ccc(F)c(-c3ncnc4cc(N5CCOCC5)ccc34)c2)cn1` (stereo not drawn) [Example 52, [4-Fluoro-3-(7-morpholin-4-yl-quinazolin-4-yl)phenyl]-(5-methoxy-pyrazin-2-yl)methanol], the IC50 in series [1] was in the range of 0.003 to 0.007 µM; in series [2], 5 to 10 µM. The Ki in series [3] (read-out: Ki [Kv1.11 hERG]) is more than 25 µM.
As to `COc1cnc(C(O)c2ccc(F)c(-c3ncnc4cc(N5CCOCC5)ccc34)c2)cn1` (stereo not drawn) [Example 53, [4-Fluoro-3-(7-morpholin-4-yl-quinazolin-4-yl)phenyl]-(5-methoxy-pyrazin-2-yl)methanol], the results for the IC50 in series [1] and in series [2] were 0.003 to 0.007 µM and 5 to 10 µM, respectively. In series [3] (read-out: Ki [Kv1.11 hERG]), the Ki was more than 25 µM.
With `OC(c1ccc(F)c(-c2ncnc3cc(N4CCOCC4)ccc23)c1)c1nccnc1Cl` (stereo not drawn) [Example 54, (3-Chloro-pyrazin-2-yl)-[4-fluoro-3-(7-morpholin-4-yl-quinazolin-4-yl)phenyl]-methanol], the IC50 was less than 0.003 µM in series [1] and less than 0.5 µM in series [2]. In addition, the Ki in series [3] (Ki [Kv1.11 hERG]) lay within 15 to 25 µM.
Consider `O=C(O)c1ccc(C(O)c2cc(-c3ncnc4cc(N5CCOCC5)ccc34)c(F)cc2Cl)nn1` (stereo not drawn) [Example 55, 6-{[2-Chloro-4-fluoro-5-(7-morpholin-4-yl-quinazolin-4-yl)phenyl]-hydroxymethyl}-pyridazine-3-carboxylic acid], for which the IC50 in series [1] fell in the range of 0.003 to 0.007 µM; in series [2] it was 10 to 30 µM. Also, the Ki in series [3] (read-out: Ki [Kv1.11 hERG]) is more than 25 µM.
Consider `OC(c1ccc2nccn2n1)c1cc(-c2ncnc3cc(N4CCOCC4)ccc23)c(F)cc1Cl` (stereo not drawn) [Example 56, [2-Chloro-4-fluoro-5-(7-morpholin-4-yl-quinazolin-4-yl)phenyl]-imidazo[1,2-b]pyridazin-6-ylmethanol], for which the IC50 in series [1] was in the range of 0.003 to 0.007 µM; in series [2], 0.5 to 5 µM. Also, in series [3] (Ki [Kv1.11 hERG]), the Ki fell in the range of 10 to 15 µM.
Turning to `OC(c1ccc2nccn2n1)c1cc(-c2ncnc3cc(N4CCOCC4)ccc23)c(F)cc1Cl` (stereo not drawn) [Example 57, [2-Chloro-4-fluoro-5-(7-morpholin-4-yl-quinazolin-4-yl)phenyl]-imidazo[1,2-b]pyridazin-6-ylmethanol], the concentration for half-maximal inhibition (IC50) in series [1] was less than 0.003 µM; in series [2], less than 0.5 µM. Moreover, in series [3] (read-out: Ki [Kv1.11 hERG]), the inhibition constant (Ki) fell in the range of 10 to 15 µM.
In the case of `COC(=O)c1ccc(C(O)c2cc(-c3ncnc4cc(N5CCOCC5)ccc34)c(F)cc2Cl)nn1` (stereo not drawn) [Example 58, 6-{[2-Chloro-4-fluoro-5-(7-morpholin-4-yl-quinazolin-4-yl)phenyl]-hydroxymethyl}-pyridazine-3-carboxylic acid methyl ester], the IC50 in series [1] lay within 0.003 to 0.007 µM; in series [2] it was 5 to 10 µM. The Ki in series [3] (read-out: Ki [Kv1.11 hERG]) was more than 25 µM.
With `Cn1nc(C(O)c2cc(-c3ncnc4cc(N5CCOCC5)ccc34)c(F)cc2Cl)ccc1=O` (stereo not drawn) [Example 59, 6-{[2-Chloro-4-fluoro-5-(7-morpholin-4-yl-quinazolin-4-yl)phenyl]-hydroxymethyl}-2-methyl-2H-pyridazin-3-one], the concentration for half-maximal inhibition (IC50) is less than 0.003 µM in series [1] and 0.5 to 5 µM in series [2]. In series [3] (Ki [Kv1.11 hERG]), this compound yielded a Ki of 15 to 25 µM.

Values taken from US9732094B2, “Arylquinazolines” (Merck Patent GmbH, priority 2013, dated 2017).
